In data set [1] the target is p38 MAPKα (MAPK14) (Homo sapiens (Human), UniProt Q16539). The data set is described as follows: p38 MAPKα enzyme inhibition (Method 2), Z-LYTE FRET. Format: biochemical. The method in brief:
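Enzyme (200 ng/mL solution) was preincubated 2 h at RT with compound solutions of 1, 0.1, 0.01 or 0.001 μg/mL, and inhibition was read indirectly via MAPKAP-K2 activation/phosphorylation. After a 1 h RT reaction and 1 h protease development, phosphorylation was derived from the coumarin/fluorescein emission ratio.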

Data set [2] addresses c-Src (Homo sapiens (Human), UniProt P12931). Nature of the data set: c-Src enzyme inhibition, Z-LYTE FRET. It is filed as biochemical. The method in brief: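 Z-LYTE FRET peptide phosphorylation read as donor coumarin over acceptor fluorescein ratio after 1 hr protease development. Compounds (1–0.001 μg/mL) preincubated 2 hr at RT with enzyme; ATP solutions 60 μM for Syk, 800 μM for c-Src; kinase reaction 1 hr.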

Data set [3] concerns the target Syk (Homo sapiens (Human), UniProt P43405). The data set is described as follows: Syk enzyme inhibition, Z-LYTE FRET. It is filed as biochemical. The method in brief:
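Syk or c-Src enzyme (3000 or 2000 ng/mL solutions) was preincubated 2 h at RT with compound solutions at 1, 0.1, 0.01 or 0.001 µg/mL. Z-LYTE FRET peptide (8 µM solution) and ATP (800 µM solution for c-Src, 60 µM for Syk) were then added for 1 h, followed by protease development for 1 h. Phosphorylation was read as the coumarin/fluorescein emission ratio.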

The subject of data set [4] is mitosis in PBMCs. Nature of the data set: (g) Cell mitosis assay. It is filed as cell-based. The note with it: Homo sapiens, PBMC, 5 μg/mL. How it is done: Peripheral blood mononucleocytes (PBMCs) from healthy subjects are separated from whole blood (Quintiles, London, UK) using a density gradient (Histopaque®-1077, Sigma-Aldrich, Poole, UK). The PBMCs (3 million cells per sample) are subsequently treated with 2% PHA (phytohaemagglutinin, Sigma-Aldrich, Poole, UK) for 48 hr, followed by a 20 hr exposure to varying concentrations of test compounds. At 2 hr before collection, PBMCs are treated with demecolcine (0.1 μg/mL; Invitrogen, Paisley, UK) to arrest cells in metaphase. To observe mitotic cells, PBMCs are permeabilized and fixed by adding Intraprep (50 μL; Beckman Coulter, France), and stained with anti-phospho-histone 3 ([…]; #9701; Cell Signalling, Danvers, Mass.) and propidium iodide (1 mg/mL; Sigma-Aldrich, Poole, UK) as previously described (Muehlbauer P. A. and Schuler M. J., Mutation Research, 2003, 537:117-130). Fluorescence is observed using an ATTUNE flow cytometer (Invitrogen, Paisley, UK), gating for lymphocytes.

The test system of data set [5] is Jurkat cells. Nature of the data set: (r) Cell cytotoxicity assay. It is filed as cell-based, human. Conditions: 24 hours. The method in brief: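 Viability read by flow cytometry as the fraction of propidium iodide-negative cells (7.5 μg/mL PI, 15 min), relative to 1.0% DMSO control. Beforehand, 1×10^5 Jurkat cells in RPMI/10% FBS were treated 24 h at 37° C., 5% CO2 with test compound at final 20, 5 or 1 μg/mL.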

c-Src, sequence (P12931 whole entry, looked up): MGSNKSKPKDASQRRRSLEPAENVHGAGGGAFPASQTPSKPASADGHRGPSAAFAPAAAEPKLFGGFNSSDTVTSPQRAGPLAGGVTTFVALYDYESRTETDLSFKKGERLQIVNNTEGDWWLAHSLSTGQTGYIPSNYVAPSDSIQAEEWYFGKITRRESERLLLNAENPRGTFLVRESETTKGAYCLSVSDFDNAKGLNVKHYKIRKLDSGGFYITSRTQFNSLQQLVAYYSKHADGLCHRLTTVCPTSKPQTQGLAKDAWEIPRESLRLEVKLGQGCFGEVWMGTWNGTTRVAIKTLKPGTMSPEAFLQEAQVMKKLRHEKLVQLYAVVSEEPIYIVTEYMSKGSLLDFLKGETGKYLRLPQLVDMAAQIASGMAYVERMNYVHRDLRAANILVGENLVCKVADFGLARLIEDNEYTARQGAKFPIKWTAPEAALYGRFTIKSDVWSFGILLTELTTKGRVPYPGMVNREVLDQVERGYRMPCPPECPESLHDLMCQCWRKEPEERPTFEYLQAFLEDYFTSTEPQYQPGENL
p38 MAPKα (MAPK14), sequence (Q16539 whole entry): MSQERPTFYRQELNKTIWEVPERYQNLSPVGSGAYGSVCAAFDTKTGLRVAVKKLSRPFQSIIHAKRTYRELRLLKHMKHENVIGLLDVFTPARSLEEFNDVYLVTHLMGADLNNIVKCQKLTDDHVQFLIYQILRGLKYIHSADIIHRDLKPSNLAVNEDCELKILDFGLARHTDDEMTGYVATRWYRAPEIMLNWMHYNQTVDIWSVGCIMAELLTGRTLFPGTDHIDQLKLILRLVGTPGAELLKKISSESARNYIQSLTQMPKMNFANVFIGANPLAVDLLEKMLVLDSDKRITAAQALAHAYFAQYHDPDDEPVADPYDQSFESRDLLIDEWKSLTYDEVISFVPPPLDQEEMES

Consider `C#Cc1cc(Nc2cc(Oc3ccc(NC(=O)Nc4cc(C(C)(C)C)cc(NS(C)(=O)=O)c4OC)c4ccccc34)ccn2)ccc1C(=O)NCCN1CCOCC1` [Example 15, 4-[[4-[[4-[[5-tert-Butyl-3-(methanesulfonamido)-2-methoxy-phenyl]carbamoylamino]-1-naphthyl]oxy]-2-pyridyl]amino]-2-ethynyl-N-(2-morpholinoethyl)benzamide], for which, in data set [1], the IC50 turned out to be 64 nM. For the same molecule, the IC50 in data set [2] amounted to 43 nM. This molecule also returned an IC50 in data set [3] of 163 nM. In data set [4], this molecule yielded an inhibition at 5 µg/mL of 62.3%. In data set [5], the “% Viability at 1 μg/mL” value is recorded as 99.5%, the “% Viability at 5 μg/mL” value stood at 75.0% and the “% Viability at 20 μg/mL” value came out at 74.5%.

`COc1cc(Nc2cc(Oc3ccc(NC(=O)Nc4cc(C(C)(C)C)cc(NS(C)(=O)=O)c4OC)c4ccccc34)ccn2)ccc1C(=O)NCCN1CCCCC1` [17(p), 4-[[4-[[4-[[5-tert-butyl-3-(methanesulfonamido)-2-methoxy-phenyl]carbamoylamino]-1-naphthyl]oxy]-2-pyridyl]amino]-2-methoxy-N-[2-(1-piperidyl)ethyl]benzamide] returned an IC50 in data set [1] of 20 nM. This molecule had an IC50 in data set [2] of 21 nM. In data set [3], this molecule gave an IC50 of 172 nM. In data set [4], at 5 µg/mL the inhibition was 92%. Further, in data set [5], the “% Viability at 1 μg/mL” value is recorded as 102.1%, the “% Viability at 5 μg/mL” value turned out to be 49.9% and the “% Viability at 20 μg/mL” value is listed as 1.5%.

For `COc1cc(Nc2cc(Oc3ccc(NC(=O)Nc4cc(C(C)(C)C)cc(NS(C)(=O)=O)c4OC)c4ccccc34)ccn2)ccc1C(=O)NCCN1CCSCC1` [17(l), 4-[[4-[[4-[[5-tert-butyl-3-(methanesulfonamido)-2-methoxy-phenyl]carbamoylamino]-1-naphthyl]oxy]-2-pyridyl]amino]-2-methoxy-N-(2-thiomorpholinoethyl)benzamide], the IC50 in data set [1] worked out at 223 nM; in data set [2], 116 nM; in data set [3], 389 nM. Further, the inhibition at 5 µg/mL in data set [4] worked out at 24.9%. The “% Viability at 1 μg/mL” value in data set [5] was 102.8%. Moreover, in data set [5], the “% Viability at 5 μg/mL” value stood at 102.7%. In data set [5], the “% Viability at 20 μg/mL” value amounted to 102.9%.

In the case of `COc1cc(Nc2cc(Oc3ccc(NC(=O)Nc4cc(C(C)(C)C)cc(NS(C)(=O)=O)c4OC)c4ccccc34)ccn2)ccc1C(=O)NCCC1CCN(C)CC1` [Example 14, 4-[[4-[[4-[[5-tert-Butyl-3-(methanesulfonamido)-2-methoxy-phenyl]carbamoylamino]-1-naphthyl]oxy]-2-pyridyl]amino]-2-methoxy-N-[2-(1-methyl-4-piperidyl)ethyl]benzamide], the IC50 was 10 nM in data set [1], 19 nM in data set [2] and 92 nM in data set [3]. Besides, 5 µg/mL produced 60.1% inhibition in data set [4]. In addition, the “% Viability at 1 μg/mL” value in data set [5] came to 101.9%. Further, the “% Viability at 5 μg/mL” value in data set [5] stood at 98.8%. In data set [5], the “% Viability at 20 μg/mL” value stood at 0.7%.

Turning to `COc1cc(Nc2cc(Oc3ccc(NC(=O)Nc4cc(C(C)(C)C)cc(NS(C)(=O)=O)c4OC)c4ccccc34)ccn2)cc(OC)c1C(=O)NCCN1CCOCC1` [17(ae), 4-[[4-[[4-[[5-tert-butyl-3-(methanesulfonamido)-2-methoxy-phenyl]carbamoylamino]-1-naphthyl]oxy]-2-pyridyl]amino]-2,6-dimethoxy-N-(2-morpholinoethyl)benzamide], the IC50 was 10 nM in data set [1], 31 nM in data set [2] and 112 nM in data set [3]. The molecule further returned an inhibition at 5 µg/mL in data set [4] of 30.6%. Moreover, the “% Viability at 1 μg/mL” value in data set [5] stood at 93.1%. Besides, the “% Viability at 5 μg/mL” value in data set [5] was 98.5%. In addition, the “% Viability at 20 μg/mL” value in data set [5] came to 92.9%.

For the molecule `COc1cc(Nc2cc(Oc3ccc(NC(=O)Nc4cc(C(C)(C)C)cc(NS(C)(=O)=O)c4OC)c4ccccc34)ccn2)ccc1C(=O)NCCCN1CCN(C)CC1` [17(aa), 4-[[4-[[4-[[5-tert-butyl-3-(methanesulfonamido)-2-methoxy-phenyl]carbamoylamino]-1-naphthyl]oxy]-2-pyridyl]amino]-2-methoxy-N-[3-(4-methylpiperazin-1-yl)propyl]benzamide], the half-inhibitory concentration (IC50) in data set [1] was 20 nM; in data set [2] it was 24 nM; in data set [3], 61 nM. Also, the inhibition at 5 µg/mL in data set [4] turned out to be 77.7%.

For `COc1cc(Nc2cc(Oc3ccc(NC(=O)Nc4cc(C(C)(C)C)cc(NS(C)(=O)=O)c4OC)c4ccccc34)ccn2)ccc1C(=O)NCCN1CCC(O)CC1` [17(m), 4-[[4-[[4-[[5-tert-butyl-3-(methanesulfonamido)-2-methoxy-phenyl]carbamoylamino]-1-naphthyl]oxy]-2-pyridyl]amino]-N-[2-(4-hydroxy-1-piperidyl)ethyl]-2-methoxy-benzamide], the IC50 in data set [1] is 25 nM; in data set [2], 19 nM; in data set [3], 192 nM. In addition, the inhibition at 5 µg/mL in data set [4] is 80.5%.

Take `COc1cc(Nc2cc(Oc3ccc(NC(=O)Nc4cc(C(C)(C)C)cc(NS(C)(=O)=O)c4OC)c4ccccc34)ccn2)ccc1C(=O)N[C@@H](C)CN1CCOCC1` [17(v), 4-[[4-[[4-[[5-tert-butyl-3-(methanesulfonamido)-2-methoxy-phenyl]carbamoylamino]-1-naphthyl]oxy]-2-pyridyl]amino]-2-methoxy-N-[(1S)-1-methyl-2-morpholino-ethyl]benzamide]: the figures for the IC50 in data set [1], in data set [2] and in data set [3] were 116 nM, 43 nM and 232 nM, respectively. This molecule also yielded an inhibition at 5 µg/mL in data set [4] of 34.4%.

In the case of `COc1cc(Nc2cc(Oc3ccc(NC(=O)Nc4cc(C(C)(C)C)cc(NS(C)(=O)=O)c4OC)c4ccccc34)ccn2)ccc1C(=O)NCCN1CCOCC1` [Example 2, 4-((4-((4-(3-(5-(tert-Butyl)-2-methoxy-3-(methylsulfonamido)phenyl)ureido)naphthalen-1-yl)oxy)pyridin-2-yl)amino)-2-methoxy-N-(2-morpholinoethyl)benzamide], the values for the concentration for half-maximal inhibition (IC50) in data set [1], in data set [2] and in data set [3] were 20 nM, 20 nM and 172 nM, respectively. In data set [4], this molecule showed an inhibition at 5 µg/mL of 48%.

As to `COc1cc(Nc2cc(Oc3ccc(NC(=O)Nc4cc(C(C)(C)C)cc(C(N)=O)c4OC)c4ccccc34)ccn2)ccc1C(=O)NCCN1CCOCC1` [Example 4, 4-((4-((4-(3-(5-(tert-Butyl)-3-carbamoyl-2-methoxyphenyl)ureido)naphthalen-1-yl)oxy)pyridin-2-yl)amino)-2-methoxy-N-(2-morpholinoethyl)benzamide], the IC50 in data set [1] came out at 121 nM; in data set [2], 37 nM; in data set [3], 277 nM. Moreover, in data set [4], the inhibition at 5 µg/mL turned out to be 46.2%.

As to `COCCOCCOCC[S+]([O-])c1ccc(Nc2cc(Oc3ccc(NC(=O)Nc4cc(C(C)(C)C)cc(NS(C)(=O)=O)c4OC)c4ccccc34)ccn2)cc1OC` (stereo not drawn) [Example 11, N-(5-(tert-Butyl)-2-methoxy-3-(3-(4-((2-((3-methoxy-4-((2-(2-(2-methoxyethoxy)ethoxy)ethyl)sulfinyl)phenyl)amino)pyridin-4-yl)oxy)naphthalen-1-yl)ureido)phenyl)methanesulfonamide], the IC50 in data set [1] was found to be 35 nM; in data set [2] it was 76 nM; in data set [3], 318 nM. Moreover, in data set [4], the inhibition at 5 µg/mL worked out at 26.6%.

Regarding `COc1cc(Nc2cc(Oc3ccc(NC(=O)Nc4cc(C(C)(C)C)cc(NS(C)(=O)=O)c4OC)c4ccccc34)ccn2)ccc1C(=O)NC1CCN(C)CC1` [17(j), 4-[[4-[[4-[[5-tert-butyl-3-(methanesulfonamido)-2-methoxy-phenyl]carbamoylamino]-1-naphthyl]oxy]-2-pyridyl]amino]-2-methoxy-N-(1-methyl-4-piperidyl)benzamide], the IC50 in data set [1] was determined as 21 nM; in data set [2], 16 nM; in data set [3] it was 39 nM. 5 µg/mL produced 85.4% inhibition in data set [4].

For the origin of these results see patent US10125100B2, “Kinase inhibitors” (Respivert Limited, priority 2014, dated 2018).
